Measured values as given in patent publication EP4678638A1, “NEW E3 UBIQUITIN LIGASE LIGAND, PROTEIN DEGRADATION AGENT AND USE THEREOF” (priority 2023, dated 2024).
pIC50: −log10 of the molar value.

How the values were obtained:
SW620 = test: CCK-8 proliferation, SW620; format: cell-based; conditions: Homo sapiens, SW-620; CCK-8; 96 hours; read-out: Inhibitory activity (IC50) on tumor cell proliferation, SW620
Method in brief: (§1)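 Tumor cells were cultured at 37°C with 5% CO2, seeded, and after 24h treated with compounds at 10 concentrations starting at 10µM (5-fold serial dilutions).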

TMD8 = test: CCK-8 proliferation, TMD8; format: cell-based; conditions: Homo sapiens, TMD8; CCK-8; 72 hours; read-out: Inhibitory activity (IC50) on tumor cell proliferation, TMD8
Description: (§2) The tumor cells used herein were cultured in a cell culture medium listed in table A1 at 37°C in an incubator with 5% CO2. Prior to experimentation, all cell lines used were correctly identified by STR profiling, and tested negative for mycoplasma contamination using a mycoplasma detection kit through routine screenings. Table A1. Tumor cells and cell culture medium used in the present disclosure
(§3) IC50 values of the compounds of the present disclosure (including the compounds in Table 1, and compounds of examples) were measured using the Meilun Cell Counting Kit-8 kit from Dalian Meilun Biotech Co., Ltd. Assay details are as follows: tumor cells were seeded in a 96-well plate at a density listed in Table A2. After 24h, 100 µL of the inoculated cells were treated with 0.5µL of the compounds of the present disclosure (including the compounds in Tables 1 and 2, and compounds of examples) at 10 different successively decreasing concentrations (starting at the highest concentration of 10µM; 5-fold serial dilutions). After the cells were treated with the compounds of the present disclosure for a period of time, the cell viability detection reagent was added to the culture medium for cell viability assessment according to the instructions provided with the CCK-8 kit. […] The growth inhibition of the compounds of the present disclosure on cells was plotted by Prism Graphpad software, and the IC50 values of the compounds of the present disclosure were calculated therefrom. […] Seeding protocol and treatment time for tumor cells

THP-1 = test: CCK-8 proliferation, THP-1; format: cell-based; conditions: Homo sapiens, 72 hours, read-out: Inhibitory activity (IC50) on tumor cell proliferation, THP-1
Description: as §2, §3

CCRF-CEM = test: CCK-8 proliferation, CCRF-CEM; format: cell-based, Human; conditions: Homo sapiens, CCRF-CEM; CCK-8; 96 hours; read-out: Inhibitory activity (IC50) on tumor cell proliferation, CCRF-CEM
Method in brief: as §1

Jurkat = test: CCK-8 proliferation, Jurkat; format: cell-based, Human; conditions: Homo sapiens, Jurkat; CCK-8; 96 hours; read-out: Inhibitory activity (IC50) on tumor cell proliferation, Jurkat
Method in brief: as §1

LNcap = test: CCK-8 proliferation, LNcap; format: cell-based; conditions: Homo sapiens, LNCaP; CCK-8; 96 hours; read-out: Inhibitory activity (IC50) on tumor cell proliferation, Lncap
Description: as §2, §3

LS174T = test: CCK-8 proliferation, LS174T; format: cell-based; conditions: Homo sapiens, read-out: Inhibitory activity (IC50) on tumor cell proliferation, LS174T
Description: IC50 values of the compounds of the present disclosure (including the compounds in Table 1, and compounds of examples) were measured using the Meilun Cell Counting Kit-8 kit from Dalian Meilun Biotech Co., Ltd. Assay details are as follows: tumor cells were seeded in a 96-well plate at a density listed in Table A2. After 24h, 100 µL of the inoculated cells were treated with 0.5µL of the compounds of the present disclosure (including the compounds in Tables 1 and 2, and compounds of examples) at 10 different successively decreasing concentrations (starting at the highest concentration of 10µM; 5-fold serial dilutions). After the cells were treated with the compounds of the present disclosure for a period of time, the cell viability detection reagent was added to the culture medium for cell viability assessment according to the instructions provided with the CCK-8 kit. […] The growth inhibition of the compounds of the present disclosure on cells was plotted by Prism Graphpad software, and the IC50 values of the compounds of the present disclosure were calculated therefrom. [drawing 1519] Table A2. Seeding protocol and treatment time for tumor cells

H1975 = test: CCK-8 proliferation, NCI-H1975 (H1975); format: cell-based, Human; conditions: Homo sapiens, NCI-H1975; CCK-8; 96 hours; read-out: Inhibitory activity (IC50) on tumor cell proliferation, H1975
Method in brief: as §1

MM.1R = test: CCK-8 proliferation, MM.1R; format: cell-based; conditions: CCK-8, 72 hours, read-out: Inhibitory activity (IC50) on tumor cell proliferation, MM.1R
Description: as §2, §3

MV-4-11 = test: CCK-8 proliferation, MV-4-11; format: cell-based, Human; conditions: Homo sapiens, MV4-11; CCK-8; 72 or 96 hours; read-out: Inhibitory activity (IC50) on tumor cell proliferation, MV-4-11
Method in brief: as §1

SR = test: CCK-8 proliferation, SR; format: cell-based, Human; conditions: Homo sapiens, SR; CCK-8; 72 hours; read-out: Inhibitory activity (IC50) on tumor cell proliferation, SR
Method in brief: as §1

CAL-62 = test: CCK-8 proliferation, CAL-62; format: cell-based; conditions: Homo sapiens, 72 hours, read-out: Inhibitory activity (IC50) on tumor cell proliferation, CAL-62
Description: as §2, §3

[1] = molecular target: T1, human Cereblon WT GST-tagged protein (Homo sapiens, UniProt Q96SW2); test: CRBN binding, HTRF (CEREBLON BINDING kit); conditions: Table II-2, CRBN binding screening, HTRF; for inhibition at 0.5 µM: read-out: Inhibition rate (%) at 0.5µM; for inhibition at 2 µM: read-out: Inhibition rate (%) at 2 µM
T1 construct: purchased CISBIO 64BDCRBNPEH
T1 sequence (Q96SW2 whole entry): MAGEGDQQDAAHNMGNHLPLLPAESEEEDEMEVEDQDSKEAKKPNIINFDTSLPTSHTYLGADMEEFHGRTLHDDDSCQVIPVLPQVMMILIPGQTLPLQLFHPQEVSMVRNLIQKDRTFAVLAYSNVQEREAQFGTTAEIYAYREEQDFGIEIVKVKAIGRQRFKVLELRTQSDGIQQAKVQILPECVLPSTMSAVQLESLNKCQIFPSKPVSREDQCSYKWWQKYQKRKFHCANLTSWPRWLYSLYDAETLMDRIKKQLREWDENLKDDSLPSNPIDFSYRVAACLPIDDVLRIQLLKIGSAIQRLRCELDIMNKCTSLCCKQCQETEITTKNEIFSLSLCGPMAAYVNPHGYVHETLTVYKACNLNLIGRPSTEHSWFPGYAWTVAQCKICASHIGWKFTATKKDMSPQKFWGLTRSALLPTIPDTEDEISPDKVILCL
Method in brief: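 After 3 h at room temperature, emission at 665 and 620 nm was measured in a homogeneous time-resolved fluorescence format. Compounds competed with a Thalidomide-Re probe for GST-tagged wild-type human CRBN, which was labelled with a Eu anti-GST antibody.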

FAK = molecular target: T2, FAK (Homo sapiens, UniProt Q05397); test: Western blot degradation of FAK; format: cell-based; conditions: Table D7
T2 construct: evaluate the effects of the compounds of the present disclosure on the expression of target proteins in cells; endogenous in cells
T2 sequence (Q05397 whole entry, species assumed): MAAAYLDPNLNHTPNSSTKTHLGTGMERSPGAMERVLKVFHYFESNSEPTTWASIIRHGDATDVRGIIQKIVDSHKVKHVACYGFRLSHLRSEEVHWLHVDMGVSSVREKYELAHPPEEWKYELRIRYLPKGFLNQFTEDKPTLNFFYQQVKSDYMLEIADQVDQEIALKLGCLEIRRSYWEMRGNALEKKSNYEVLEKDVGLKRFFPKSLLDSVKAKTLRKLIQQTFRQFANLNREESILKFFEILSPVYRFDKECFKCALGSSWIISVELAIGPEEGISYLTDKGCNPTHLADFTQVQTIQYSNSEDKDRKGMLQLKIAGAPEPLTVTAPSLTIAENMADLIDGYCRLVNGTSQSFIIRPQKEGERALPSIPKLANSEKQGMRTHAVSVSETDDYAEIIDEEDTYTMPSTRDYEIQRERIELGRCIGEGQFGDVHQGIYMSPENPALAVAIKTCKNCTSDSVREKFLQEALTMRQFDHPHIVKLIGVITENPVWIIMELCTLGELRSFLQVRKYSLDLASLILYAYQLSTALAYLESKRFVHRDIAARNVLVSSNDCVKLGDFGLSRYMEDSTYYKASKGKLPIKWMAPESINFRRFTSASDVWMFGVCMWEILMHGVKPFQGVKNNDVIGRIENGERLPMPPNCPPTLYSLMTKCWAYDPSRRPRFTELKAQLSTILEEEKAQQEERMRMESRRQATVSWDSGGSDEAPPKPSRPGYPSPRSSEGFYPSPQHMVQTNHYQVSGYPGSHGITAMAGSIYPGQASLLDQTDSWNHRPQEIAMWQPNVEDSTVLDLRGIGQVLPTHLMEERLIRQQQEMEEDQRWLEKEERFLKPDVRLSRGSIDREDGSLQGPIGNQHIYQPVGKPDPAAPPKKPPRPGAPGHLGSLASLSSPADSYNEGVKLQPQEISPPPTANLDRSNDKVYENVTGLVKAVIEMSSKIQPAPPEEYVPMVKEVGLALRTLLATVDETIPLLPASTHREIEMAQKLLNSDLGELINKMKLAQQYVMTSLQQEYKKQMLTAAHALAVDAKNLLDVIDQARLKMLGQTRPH
Method in brief: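 After compound exposure, cells were harvested and lysates run on SDS-PAGE, transferred to nitrocellulose and probed with antibodies. Remaining target (%) was computed from band grayscale relative to an internal control protein and normalised; degradation (%) was 100% minus that.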

BXPC-3 = test: CCK-8 proliferation, BXPC-3; format: cell-based; conditions: Homo sapiens, 96 hours, read-out: Inhibitory activity (IC50) on tumor cell proliferation, BXPC-3
Description: as §2, §3

MGC-803 = test: CCK-8 proliferation, MGC-803 (heads: MGC80-3, MGC803); format: cell-based, Human; conditions: Homo sapiens, MGC-803; CCK-8; 72 hours; read-out: Inhibitory activity (IC50) on tumor cell proliferation, MGC80-3
Method in brief: as §1

Compound | pIC50 (SW620) | pIC50 (CCRF-CEM) | pIC50 (H1975) | pIC50 (MM.1R) | pIC50 (MV-4-11) | pIC50 (BXPC-3) | pIC50 (SR) | pIC50 (CAL-62) | Degradation of substrate protein FAK (substrate protein remaining %) (FAK) | also measured
CNC(=O)c1ccccc1Nc1cc(Nc2ccc(N3CCOCC3)cc2OC)ncc1C(F)(F)F [PND-1186, reference compound] |  | 5.30 to 6.00 |  | 6.00 to 6.30 | 6.30 to 7.00 |  |  | 5.30 to 6.00 |  | pIC50 (Jurkat): 5.30 to 6.00
CNC(=O)c1ccc(Nc2ncc(C(F)(F)F)c(NCc3nccnc3N(C)S(C)(=O)=O)n2)cc1 [Defactinib, reference compound] | 5.30 to 6.00 | 5.30 to 6.00 | 5.30 to 6.00 | 5.30 to 6.00 | 7.00 to 7.30 |  | 6.00 to 6.30 | 5.00 to 5.30 |  | pIC50 (Jurkat): 5.30 to 6.00
Cc1ccc(-c2c(C)noc2C)cc1N(CC1CCN(Cc2cccc(N3CCC(=O)NC3=O)c2)CC1)c1ccc(C2(C#N)CC2)cc1 [GT-04842, 1-(4-((5-(3,5-dimethylisoxazol-4-yl)-2-methylphenyl)((1-(3-(2,4-dioxotetrahydropyrimidin-1(2H)-yl)benzyl)piperidin-4-yl)methyl)amino)phenyl)cyclopropane-1-carbonitrile] |  |  |  |  |  | 6.00 to 6.30 |  |  |  | pIC50 (THP-1): 6.00 to 6.30
Cc1ccc(-c2c(C)noc2C)cc1N(CC1CCN(Cc2cccc(NC3CCC(=O)NC3=O)c2)CC1)c1ccc(C2(C#N)CC2)cc1 (stereo not shown) [GT-04841, 1-(4-((5-(3,5-dimethylisoxazol-4-yl)-2-methylphenyl)((1-(3-((2,6-dioxopiperidin-3-yl)amino)benzyl)piperidin-4-yl)methyl)amino)phenyl)cyclopropane-1-carbonitrile] |  |  |  |  |  | 6.30 to 7.00 |  |  |  | pIC50 (THP-1): 6.00 to 6.30

Continued, in another order:

pIC50 (SW620) | pIC50 (CCRF-CEM) | pIC50 (H1975) | pIC50 (MM.1R) | pIC50 (MV-4-11) | pIC50 (BXPC-3) | Compound | pIC50 (SR) | pIC50 (CAL-62) | Degradation of substrate protein FAK (substrate protein remaining %) (FAK) | also measured
6.00 to 6.30 | 6.30 to 7.00 |  |  |  |  | CC1(C)CCC(c2ccc(Cl)cc2)=C(CN2CCN(c3ccc(C(=O)NS(=O)(=O)c4ccc(N[C@H](CCN5CCOCC5)CSc5ccccc5)c(S(=O)(=O)C(F)(F)F)c4)cc3)CC2)C1 [ABT-263, Navitoclax, reference compound] |  |  |  | pIC50 (TMD8): 5.30 to 6.00; pIC50 (THP-1): 6.30 to 7.00; pIC50 (Jurkat): 6.30 to 7.00; pIC50 (LNcap): 5.30 to 6.00; pIC50 (LS174T): 6.00 to 6.30
6.30 to 7.00 | 6.30 to 7.00 | 6.30 to 7.00 | 6.00 to 6.30 | 6.30 to 7.00 |  | CNC(=O)c1ccccc1Nc1cc(Nc2ccc(N3CCC(N(C)Cc4ccc(C5CCC(=O)NC5=O)cc4)CC3)cc2OC)ncc1C(F)(F)F (stereo not shown) [GT-03733, 2-((2-((4-(4-((4-(2,6-dioxopiperidin-3-yl)benzyl)(methyl)amino)piperidin-1-yl)-2-methoxyphenyl)amino)-5-(trifluoromethyl)pyridin-4-yl)amino)-N-methylbenzamide] | 7.00 to 7.30 | 7.00 to 7.30 | A (A is defined as 0% ≤ substrate protein remaining % ≤ 80%) | inhibition at 0.5 µM [1]: 30 to 40%; inhibition at 2 µM [1]: 40 to 53%
6.30 to 7.00 | 6.00 to 6.30 |  |  |  |  | CNC(=O)c1ccccc1Nc1cc(Nc2cc(C)c(N3CCC(N(C)Cc4ccc(C5CCC(=O)NC5=O)cc4)CC3)cc2OC(C)C)ncc1C(F)(F)F (stereo not shown) [GT-04094, 2-((2-((4-(4-((4-(2,6-dioxopiperidin-3-yl)benzyl)(methyl)amino)piperidin-1-yl)-2-isopropoxy-5-methylphenyl)amino)-5-(trifluoromethyl)pyridin-4-yl)amino)-N-methylbenzamide] |  | 6.00 to 6.30 | A (A is defined as 0% ≤ substrate protein remaining % ≤ 80%) | inhibition at 0.5 µM [1]: 10 to 20%; inhibition at 2 µM [1]: 53 to 60%
7.00 to 7.30 | 6.00 to 6.30 | 6.00 to 6.30 | 6.00 to 6.30 |  |  | CNC(=O)c1ccccc1Nc1cc(Nc2ccc(N3CCC(N4CCN(Cc5ccc(C6CCC(=O)NC6=O)c(F)c5)CC4)CC3)cc2OC)ncc1C(F)(F)F (stereo not shown) [GT-03600, 2-((2-((4-(4-(4-(4-(2,6-dioxopiperidin-3-yl)-3-fluorobenzyl)piperazin-1-yl)piperidin-1-yl)-2-methoxyphenyl)amino)-5-(trifluoromethyl)pyridin-4-yl)amino)-N-methylbenzamide] | 7.00 to 7.30 | 6.30 to 7.00 | A (A is defined as 0% ≤ substrate protein remaining % ≤ 80%) | 
6.00 to 6.30 | 6.00 to 6.30 |  |  |  | 7.00 to 7.30 | Cc1ccc(-c2c(C)noc2C)cc1N(CC1CCN(Cc2ccc(C3CCC(=O)NC3=O)cc2)CC1)c1ccc(C2(C#N)CC2)cc1 (stereo not shown) [GT-04839, 1-(4-((5-(3,5-dimethylisoxazol-4-yl)-2-methylphenyl)((1-(4-(2,6-dioxopiperidin-3-yl)benzyl)piperidin-4-yl)methyl)amino)phenyl)cyclopropane-1-carbonitrile] |  |  |  | pIC50 (MGC-803): 6.00 to 6.30
6.30 to 7.00 |  |  |  |  | 7.30 to 8.00 | Cc1ccc(-c2c(C)noc2C)cc1N(CC1CCN(Cc2ccc(C3CCC(=O)NC3=O)c(F)c2)CC1)c1ccc(C2(C#N)CC2)cc1 (stereo not shown) [GT-04840, 1-(4-((5-(3,5-dimethylisoxazol-4-yl)-2-methylphenyl)((1-(4-(2,6-dioxopiperidin-3-yl)-3-fluorobenzyl)piperidin-4-yl)methyl)amino)phenyl)cyclopropane-1-carbonitrile] |  |  |  | pIC50 (MGC-803): 6.30 to 7.00
6.30 to 7.00 | 6.30 to 7.00 | 6.30 to 7.00 |  | 6.30 to 7.00 |  | CNC(=O)c1ccccc1Nc1cc(Nc2ccc(N3CCC(N(C)Cc4ccc(C5CCC(=O)NC5=O)c(F)c4)CC3)cc2OC)ncc1C(F)(F)F (stereo not shown) [GT-03734, 2-((2-((4-(4-((4-(2,6-dioxopiperidin-3-yl)-3-fluorobenzyl)(methyl)amino)piperidin-1-yl)-2-methoxyphenyl)amino)-5-(trifluoromethyl)pyridin-4-yl)amino)-N-methylbenzamide] | 7.00 to 7.30 | 7.00 to 7.30 | A (A is defined as 0% ≤ substrate protein remaining % ≤ 80%) | 
